Data: patent publication US7825096B2, “O6-alkylguanine-DNA alkyltransferase inactivators and beta-glucuronidase cleavable prodrugs” (The United States of America as represented by the …, priority 2004, dated 2010)
Converted amounts (≈) assume the structure as drawn. Structures can show the parent of a compound that is named as a salt.

Experiments:
[1] = system: HT29 cells; test: HT29 cell killing by BCNU after drug pretreatment, colony-forming assay; assay type: cell-based; conditions: for HT29 cell killing by BCNU after prodrug without β-glucuronidase: 5 hr prodrug, no β-glucuronidase, then two-hour 40 μM BCNU; for HT29 cell killing by BCNU after prodrug without β-glucuronidase / HT29 cell killing by BCNU after prodrug with β-glucuronidase: FIG. 3; for HT29 cell killing by BCNU after prodrug with β-glucuronidase: bovine liver β-glucuronidase 20 units/mL of medium, 7 or 14 hr (1), 14 hr (2), then 2 hr 40 μM BCNU
Protocol: HT29 cells were grown in RPMI 1640 medium in the presence of 10% fetal bovine serum. The effect of alkyltransferase inactivators on the sensitivity of cells to BCNU was determined using a colony-forming assay. Cells were plated at a density of 10^6 in 25 cm^2 flasks and 24 h later were incubated with different concentrations of prodrugs for the time indicated before exposure to 40 μM BCNU for 2 hr. For experiments involving β-glucuronidase, the bovine liver protein was added to the cell cultures at 20 units/mL of medium and incubated along with the prodrug. BCNU was dissolved in absolute ethanol at a concentration of 8 mM. It was diluted with the same volume of ice-cold phosphate-buffered saline, and was immediately administered to cells. After two hr, the medium was replaced with fresh medium and the cells were left to grow for an additional 16-18 h. The cells were then replated at densities of 250 cells per 25 cm^2 flask and grown for 8 days until discrete colonies had formed. The colonies were washed with 0.9% saline solution, stained with 0.5% crystal violet in ethanol, and counted. The plating efficiency of cells not treated with drugs was about 50%.

[2] = Solubility in water; assay type: physicochemical; conditions: for solubility: water
[3] = Stability under acidic conditions; assay type: physicochemical
[4] = Stability (first-order hydrolysis) of prodrugs in aqueous buffers at 37° C., HPLC; assay type: physicochemical; conditions: for Observed first order rate constant for hydrolysis, kTris: 50 mM Tris-HCl (pH 7.5), 5 mM dithiothreitol, 0.1 mM EDTA; for Observed first order rate constant for hydrolysis, kTris / Observed first order rate constant for hydrolysis, kMOPS / Observed first order rate constant for hydrolysis, kDulbecco: 37° C.; for Observed first order rate constant for hydrolysis, kMOPS: 50 mM morpholinopropane sulfonic acid, pH 7.0, 0.01% NaCl; for Observed first order rate constant for hydrolysis, kPBS: Phosphate buffered saline, pH 7.2, 37° C.; for Observed first order rate constant for hydrolysis, kDulbecco: modified Dulbecco's medium
Protocol: Prodrug purity of the prodrugs was determined by HPLC on a Hewlett-Packard LC 1090 Series II system equipped with a Phenomenex 250×4 mm column (5 μm particle size) eluted isocratically at 1 mL/min with acetonitrile/0.1 M triethylammonium acetate (TEAA), pH 7.0, (3:7). Aliquots (100 μL) from prodrug solutions were withdrawn and diluted with 100 μL of a solution of p-nitrobenzyl alcohol (an internal standard) in acetonitrile/0.1 M TEAA (6:4). UV detection was at 254 and 280 nm. Retention times for 1, 2, O^6-benzylguanine, O^6-benzyl-2′-deoxyguanosine and p-nitrobenzyl alcohol were 5.20, 4.97, 7.13, 7.18 and 8.64 min, respectively. All determinations were carried out in duplicate or triplicate.
The stability of the prodrugs was determined in phosphate buffered saline (pH 7.2) (Life Techologie, Inc), a Tris buffer containing 50 mM Tris-HCl (pH 7.5) (Life Technologies, Inc), 5 mM dithiothreitol and 0.1 mM EDTA, a MOPS buffer (pH 7.0) containing 50 mM morpholinopropane sulfonic acid, […] Dulbecco's medium prepared by combining 400 mL of Dulbecco's medium with 7 mL of 7.5% NanCO3, 4 mL of 15 mM glutamine, 2 mL gentamicin and 40 mL of fetal calf serum. Solutions were incubated at 37° C. and prodrug concentrations were analyzed by HPLC at various times as indicated above.
Rate constants for the first-order disappearance of prodrugs were estimated from semi-log plots of the concentration of prodrug as a function of time. The spontaneous rate of liberation, for example, in aqueous solutions, of the AGT inactivator is much lower than the rate for β-glucuronidase catalyzed liberation, for example, about 10 times less, and preferably 100 times less. The spontaneous rate of liberation of the AGT inactivator from the prodrug is low, e.g., about 0.2 to about 0.5% by weight per hour.

[5] = target: T1, E. coli β-glucuronidase (Escherichia coli, UniProt P05804); test: Enzymatic hydrolysis of prodrugs by E. coli β-glucuronidase in MOPS buffer; assay type: biochemical; conditions: 0.2 unit/mL E. coli enzyme, FIG. 1B
T1 construct: purchased Sigma type IX-A
T1 sequence (P05804 whole entry): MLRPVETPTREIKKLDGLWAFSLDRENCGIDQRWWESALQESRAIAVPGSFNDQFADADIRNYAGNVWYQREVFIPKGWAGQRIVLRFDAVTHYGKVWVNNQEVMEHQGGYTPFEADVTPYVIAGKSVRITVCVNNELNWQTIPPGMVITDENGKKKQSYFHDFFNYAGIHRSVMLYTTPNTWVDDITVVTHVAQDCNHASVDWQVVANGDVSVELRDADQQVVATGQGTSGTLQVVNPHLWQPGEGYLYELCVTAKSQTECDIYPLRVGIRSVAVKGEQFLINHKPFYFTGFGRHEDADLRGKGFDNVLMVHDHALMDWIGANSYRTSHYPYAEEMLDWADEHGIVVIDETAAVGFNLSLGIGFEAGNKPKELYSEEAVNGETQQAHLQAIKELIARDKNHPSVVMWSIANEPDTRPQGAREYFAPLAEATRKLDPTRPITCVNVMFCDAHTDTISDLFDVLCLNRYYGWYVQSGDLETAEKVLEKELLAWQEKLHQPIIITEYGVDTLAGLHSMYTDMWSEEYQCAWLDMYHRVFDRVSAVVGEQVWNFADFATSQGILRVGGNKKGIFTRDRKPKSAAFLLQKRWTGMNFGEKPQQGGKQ
Protocol: (§1) The enzymatic hydrolysis of the prodrugs was investigated with both E. coli and bovine liver β-glucuronidase in MOPS buffer at pH 7.0. Prodrugs and p-nitrobenzyl alcohol (HPLC internal standard) were dissolved in the MOPS buffer (pH 7.0) at 37° C. Enzymatic cleavage was initiated by adding 0.2 Fishman units of E. coli β-glucuronidase (Sigma type IX-A) (42.8 units/mg of protein) or 10 Fishman units of bovine liver β-glucuronidase (Sigma type B-10) (10.2 units/mg of protein) to the incubation buffer. Aliquots (100 μL) of the reaction mixture were withdrawn at various times and were mixed with 100 μL of acetonitrile/0.1 M TEAA (6:4) to quench the enzymatic reaction. Prodrug and product concentrations were determined by HPLC. For determination of enzyme kinetic parameters, prodrug solutions at concentrations between 5 and 300 μM were incubated with a fixed amount of enzyme. Aliquots were withdrawn at time intervals varying from 1 to 20 min and the reactions were quenched as described above. Initial reaction velocities were determined at each substrate concentration. Non-linear regression methods were used to determine KM and Vmax values. Data were processed with Prism 3.0 software.

[6] = target: T2, bovine liver β-glucuronidase (Bos taurus, UniProt A3KMY8); test: Enzymatic hydrolysis of prodrugs by bovine liver β-glucuronidase in MOPS buffer; assay type: biochemical; conditions: 10 units/mL bovine liver enzyme, FIG. 1A
T2 construct: bovine liver β-glucuronidase (Sigma type B-10) (10.2 units/mg of protein); purchased Sigma type B-10; host or cells: bovine liver
T2 sequence (A3KMY8 1-652): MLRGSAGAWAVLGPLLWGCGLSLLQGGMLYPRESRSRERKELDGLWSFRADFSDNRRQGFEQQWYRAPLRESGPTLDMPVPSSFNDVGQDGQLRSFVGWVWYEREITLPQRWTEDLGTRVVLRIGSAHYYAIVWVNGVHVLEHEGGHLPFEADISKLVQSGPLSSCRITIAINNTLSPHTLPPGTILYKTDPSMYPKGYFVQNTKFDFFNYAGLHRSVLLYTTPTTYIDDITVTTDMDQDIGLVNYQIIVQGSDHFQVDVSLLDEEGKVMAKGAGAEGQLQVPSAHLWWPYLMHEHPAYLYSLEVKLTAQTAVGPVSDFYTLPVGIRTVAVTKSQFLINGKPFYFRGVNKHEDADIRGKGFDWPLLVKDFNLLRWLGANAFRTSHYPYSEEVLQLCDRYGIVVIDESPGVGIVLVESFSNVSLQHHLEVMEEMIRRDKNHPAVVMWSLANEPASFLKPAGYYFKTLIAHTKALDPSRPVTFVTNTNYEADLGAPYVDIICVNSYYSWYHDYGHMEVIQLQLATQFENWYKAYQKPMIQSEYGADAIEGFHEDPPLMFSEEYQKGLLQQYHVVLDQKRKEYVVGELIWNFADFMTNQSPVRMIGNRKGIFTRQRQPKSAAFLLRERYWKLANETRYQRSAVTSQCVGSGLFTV
Protocol: as §1

[7] = target: T3, human O^6-alkylguanine-DNA alkyltransferase (Homo sapiens, UniProt P16455); test: Inactivation of purified recombinant human alkyltransferase (AGT) in vitro, [3H]-methylated DNA substrate; assay type: biochemical; conditions: for IC50: absence of β-glucuronidase, 30 min at 37° C., FIG. 2, read-out: inactivation of human AGT: concentration up to which inactive; for alkyltransferase inactivation in the presence of bovine liver β-glucuronidase: incubation with bovine liver β-glucuronidase (20 or 200 units/mL) for 30 min, FIG. 2A/2B
T3 sequence (P16455 1-207): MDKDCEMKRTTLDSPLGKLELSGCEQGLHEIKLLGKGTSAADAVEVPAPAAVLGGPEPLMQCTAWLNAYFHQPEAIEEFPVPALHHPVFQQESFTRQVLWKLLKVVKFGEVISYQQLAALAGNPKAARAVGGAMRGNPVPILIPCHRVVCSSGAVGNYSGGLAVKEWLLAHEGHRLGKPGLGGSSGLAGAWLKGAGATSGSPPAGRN
Protocol: Purified recombinant human alkyltransferase was incubated with different concentrations of prodrugs in 0.5 mL of reaction buffer (50 mM Tris-HCl, pH 7.6, 0.1 mM EDTA, 5.0 mM dithiothreitol) containing 50 μg of hemocyanin for 30 min at 37° C. For experiments involving β-glucuronidase, the bovine liver protein, prodrugs and alkyltransferase were incubated together in the above hemocyanin-containing buffer for 30 min at 37° C. The remaining alkyltransferase activity was determined after incubation with a [^3H]-methylated calf thymus DNA substrate for 30 min at 37° C. by measuring the [^3H]-methylated methylated protein formed, which was collected on nitrocellulose filters. The results were expressed as the percentage of the alkyltransferase activity remaining.

| Compound | ED90 for HT29 cell killing by 40 μM BCNU following a 2-hr incubation with drug [1] | solubility [2] | fold more water soluble than O^6-benzylguanine ([2]; relative to O^6-benzylguanine) | stability under acidic conditions compared with O^6-benzylguanine [3] | Observed first order rate constant for hydrolysis, kTris [4] | Observed first order rate constant for hydrolysis, kMOPS [4] | Observed first order rate constant for hydrolysis, kPBS [4] | average half-time for decomposition ([4]; aqueous buffers of Table 1) | Observed first order rate constant for hydrolysis, kDulbecco [4] | hydrolysis by the E. coli enzyme (prodrug disappearance) [5] | hydrolysis by the bovine liver enzyme (prodrug disappearance) [6] | IC50 [7] | alkyltransferase inactivation in the presence of bovine liver β-glucuronidase [7] | HT29 cell killing by BCNU after prodrug without β-glucuronidase [1] | HT29 cell killing by BCNU after prodrug with β-glucuronidase [1] |
| --- | --- | --- | --- | --- | --- | --- | --- | --- | --- | --- | --- | --- | --- | --- | --- |
| NCc1ccc(COc2nc(N)nc3[nH]cnc23)cc1 [Compound 24, O^6-(4-Aminomethylbenzyl)guanine] | >>5 μM | > 100 mg/mL | – | – | – | – | – | – | – | – | – | – | – | – | – |
| NCc1cccc(COc2nc(N)nc3nc[nH]c23)c1 [Compound 25, O^6-(3-Aminomethylbenzyl)guanine] | 1.75 µM | > 100 mg/mL | at least 700 × | far more stable | – | – | – | – | – | – | – | – | – | – | – |
| Nc1nc(OCc2ccccc2)c2nc[nH]c2n1 [O^6-benzylguanine, reference compound] | 0.75 µM | 0.1 mg/mL (≈ 0.415 mM) | – | – | – | – | – | – | – | – | – | – | – | – | – |
| O=C(Nc1nc(OCc2ccccc2)c2nc[nH]c2n1)OCc1ccc(O[C@@H]2O[C@H](C(=O)O)[C@@H](O)[C@H](O)[C@H]2O)c([N+](=O)[O-])c1 [Prodrug 1, O^6-Benzyl-N-[[[[4′-[(-β-D-glucopyranuronosyl)oxy]-3′-nitrophenyl]methyl]oxy]carbonyl]guanine, monosodium salt] | – | – | – | – | 4.06e-06 min⁻¹ | 3.77e-06 min⁻¹ | 3.86e-06 min⁻¹ | ~100 days | 7.15e-08 s⁻¹ | rapid disappearance | rapid disappearance | > 50 µM | efficient alkyltransferase inactivation | quite resistant to killing | greatly sensitized to killing by BCNU |
| O=C(Nc1nc(OCc2ccccc2)c2ncn([C@H]3C[C@H](O)[C@@H](CO)O3)c2n1)OCc1ccc(O[C@@H]2O[C@H](C(=O)O)[C@@H](O)[C@H](O)[C@H]2O)c([N+](=O)[O-])c1 [Prodrug 2, O^6-Benzyl-N^2-[[[[4″-[(β-D-glucopyranuronosyl)oxy]-3″-nitrophenyl]methyl]oxy]carbonyl]-2′-deoxyguanosine, monosodium salt] | – | – | – | – | 1.55e-07 min⁻¹ | 1.88e-07 min⁻¹ | 6.46e-07 min⁻¹ | – | 7.8e-09 s⁻¹ | rapid disappearance | rapid disappearance | > 50 µM | efficient alkyltransferase inactivation | quite resistant to killing | much greater cell killing by BCNU |
